According to patent publication US20250248979A1, “NOVEL GPX4 INHIBITORS AND USES THEREOF” (THE TRUSTEES OF COLUMBIA UNIVERSITY IN THE CITY OF NEW YORK, priority 2022, published 2025):
≈ marks a conversion by molar mass, not a printed value. Like-named read-outs stand apart in the source and are kept apart here.

Legend:
in vitro [1] = format: in vitro ADME, mouse
Protocol: (§1) […]. The incubation timepoints measured were 0, 5, 10, 15, 30, and 45 minutes. All samples were prepared in duplicate and analyzed by LC-MS/MS.

[2] = Kinetic aqueous solubility; settings: aqueous solubility; Table 9
in vitro [3] = format: in vitro ADME, human
Protocol: as §1

HepG2 cells = test: Cellular dose response assay, HepG2; format: cell-based, human
Description: (§2) HT-1080 (human [Homo sapiens] […] fibrosarcoma), A-673 (human [Homo sapiens] […] Ewing's sarcoma), and SK-HEP-1 (human [Homo sapiens] […] hepatic adenocarcinoma), cells were obtained from ATCC. Huh7 (human [Homo sapiens] […] hepatocellular carcinoma), HLF (human [Homo sapiens] […] hepatocellular carcinoma), HepG2 (human [Homo sapiens] […] hepatocellular carcinoma), cells were obtained from the Cancer Cell Bank at Columbia University Irving Medical Center. HT-1080, A-673, Huh-7, and HLF cells were grown in Dulbecco's Modified Eagle Medium (DMEM) supplemented with 10% heat inactivated fetal bovine serum (HI-FBS), 1% non-essential amino acids, and 1% penicillin streptomycin. HepG2 and SK-HEP-1 cells were grown in Eagle's Minimum Essential Medium (EMEM) supplemented with 10% HI-FBS, and 1% penicillin-streptomycin. All cells were cultured at 37° C. and 5% CO2.
(§3) HT-1080, HepG2, Huh7, HLF, and SK-HEP-1 cells were seeded into opaque white 384-well plates at 1500 cells per well then incubated at 37° C. with 5% CO2 overnight. The next day, compounds of interest were dissolved in DMSO and 12-point 2-fold dilution series were prepared with and without Fer-1. Cells were treated in triplicate (final DMSO concentration of 0.4% in all wells, including DMSO-only control wells) and incubated for a further 48 hours at 37° C. and 5% CO2. Cell viability was evaluated using CellTiter-Glo (Promega G7573) and luminescence was recorded on a Victor 5 plate reader. Data were analyzed in GraphPad Prism 9 and error bars represent standard deviation values for three technical replicates in a representative experiment.

GPX4 = molecular target: T1, GPX4 (Homo sapiens, UniProt P36969); test: GPX4 activity assay in cell lysates (NADPH-coupled); format: biochemical; design: endogenous in cells; host or cells: A-673 cell lysate; settings: for GPX4% inhibition at 200 (μM) / GPX4 inhibition: 200 μM
T1 sequence (P36969 1-170 isoform P36969-2): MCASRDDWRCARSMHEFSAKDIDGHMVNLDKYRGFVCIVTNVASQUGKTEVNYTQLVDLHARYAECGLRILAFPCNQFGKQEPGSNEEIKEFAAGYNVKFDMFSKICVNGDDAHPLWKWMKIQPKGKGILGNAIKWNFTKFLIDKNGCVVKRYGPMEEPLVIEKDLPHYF
Outline: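 Native GPX4 in lysates of A-673 cells grown with 20 nM sodium selenite; lysate preincubated with compound 45 min at 37 °C in pH 8.0 buffer with 3 mM GSH, 0.5 mM NADPH and glutathione reductase. Reaction started with phosphatidylcholine hydroperoxide; NADPH consumption followed at 340 nm over 25 min; triplicates.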

HT-1080 cells = test: Cellular dose response assay, HT-1080 with and without Fer-1; format: cell-based, human
Outline: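 Following overnight attachment (1500 cells per well), triplicate wells got 2-fold serial dilutions across 12 points, with or without Fer-1 for HT-1080, at 0.4% final DMSO. After 48 h incubation, luminescent ATP-based viability (CellTiter-Glo) was recorded.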

Huh7 cells = test: Cellular dose response assay, Huh7; format: cell-based, human; settings: Table 7
Description: as §2, §3

HLF cells = test: Cellular dose response assay, HLF; format: cell-based, human; settings: Table 7
Description: as §2, §3

SK-HEP-1 cells = test: Cellular dose response assay, SK-HEP-1; format: cell-based, human; settings: Table 7
Description: as §2, §3

[4] = generation 1, mean ± s.d., n = 3
[5] = compounds alone, read-out: IC50 (uM) Huh7^a
[6] = with fer-1, read-out: IC50 (uM) Huh7^b
[7] = compounds alone, Table 7, read-out: IC50 (uM) HEPG2^a
[8] = with fer-1, Table 7, read-out: IC50 (uM) HEPG2^b
[9] = compounds alone, read-out: IC50 (uM) HLF^a
[10] = with fer-1, read-out: IC50 (uM) HLF^b
[11] = compounds alone, read-out: IC50 (uM) SKHEP1^a
[12] = with fer-1, read-out: IC50 (uM) SKHEP1^b
[13] = compounds alone, Table 7, read-out: IC50 (uM) HT1080^a
[14] = with fer-1, Table 7, read-out: IC50 (uM) HT1080^b

SMILES	Solubility [2] [µM]	GPX4% inhibition at 200 (μM) (GPX4; [4]) [%]	IC50 (Huh7 cells; [5]) [µM]	IC50 (Huh7 cells; [6]) [µM]	IC50 (HepG2 cells; [7]) [µM]	IC50 (HepG2 cells; [8]) [µM]	IC50 (HLF cells; [9]) [µM]	IC50 (HLF cells; [10]) [µM]	IC50 (SK-HEP-1 cells; [11]) [µM]	IC50 (SK-HEP-1 cells; [12]) [µM]	IC50 (HT-1080 cells; [13]) [µM]	IC50 (HT-1080 cells; [14]) [µM]	GPX4 inhibition (GPX4)	GPX4% inhibition at 200 (μM) (GPX4; generation 2) [%]	other results
COc1ccc(N(C(=O)CCl)C(C(=O)NCCc2ccccc2)c2cccs2)cc1Cl (centres unmarked) [ML162, reference compound]	3.8 (≈ 1.81 µg/mL)														Microsome Stability t1/2 (min) mouse (in vitro [1]; mouse liver microsomes): 1.5 min; Microsome Stability t1/2 (min) human (in vitro [3]; human liver microsomes): 0.9 min
O=C(Nc1c[nH]c2ccccc12)n1ccnc1 [QW-065]															IC50 (HepG2 cells; compounds alone, read-out: IC50 (μM) HEPG2^a): > 400 µM; IC50 (HepG2 cells; compounds and fer-1 1.0 μM, read-out: IC50 (μM) HEPG2^b): > 400 µM; GPX4% inhibition at 200 (μM) (GPX4; mean ± s.d., n = 3): 32.4 ± 2.4%; IC50 (HT-1080 cells; compounds alone, read-out: IC50 (μM) HT1080^a): > 400 µM; IC50 (HT-1080 cells; compounds and fer-1 1.0 μM, read-out: IC50 (μM) HT1080^b): > 400 µM
CC(C)(COC(=O)CBr)NC(=O)c1cc2cc([N+](=O)[O-])ccc2[nH]1 [QW-171]	56 (≈ 22.3 µg/mL)	83.9 ± 16.8													Microsome Stability t1/2 (min) mouse (in vitro [1]; mouse, microsomes): 283 min; Microsome Stability t1/2 (min) human (in vitro [3]; human, microsomes): 187 min
COc1ccc2cc(C(=O)NCC(C)(C)COC(=O)CBr)[nH]c2c1 [QW-303]		88.7 ± 2.3	6.3	16.8	4.7	12.7	2.5	5.7	5.1	17.1	4	6.1			
O=C(CBr)OCCCNC(=O)c1cc2cc(Cl)ccc2[nH]1 [QW-305]		88.6 ± 3.1	3.8	26.1	1.9	7.2	0.7	4.3	2.3	10.9	1.9	5			
CC(C)(COC(=O)CCl)NC(=O)c1c[nH]c2cc(Br)ccc12 [QW-316]	71 (≈ 27.5 µg/mL)	87.2 ± 9.2													Microsome Stability t1/2 (min) mouse (in vitro [1]; mouse, microsomes): 6 min; Microsome Stability t1/2 (min) human (in vitro [3]; human, microsomes): 24 min
CC(C)(COC(=O)CCl)NC(=O)c1[nH]c2ccccc2c1Br [QW-348]		99.6 ± 3.2	4.5	32.4	7.5	27.3	4.1	27.8	3.9	32.7	8.5	26			
Cn1nc(C(=O)NC(C)(C)COC(=O)CCl)c2cc(Br)ccc21 [QW-356]			2.5	112	6.7	73.5	1.1	60.9	0.8	81	3.1	58.3	complete inhibition	105.7 ± 2.5	GPX4 inhibitory activity, result in words (GPX4): significant improvement on GPX4 inhibition over QW-314 and RSL3
CC(C)(COC(=O)CCl)NC(=O)c1nn(-c2ccccc2)c2ccccc12 [QW-357]			3.5	58.7	9.2	55.7	2.9	36.4	3.8	50	9.1	40.1	complete inhibition	104.8 ± 1.9	
Cn1nc(C(=O)NC(C)(C)COC(=O)CCl)c2cccc(OC(=O)CCl)c21 [QW-360]			9.1	175	24.8	40.3	6.7	27.1	3.5	44.4	12.7	46.7	complete inhibition	101.9 ± 1.5	
